The text below walks through data of ChEMBL document CHEMBL5532661, “Discovery of a Novel Glucagon-like Peptide-1 (GLP-1) Analogue from Bullfrog and Investigation of Its Potential for Designing GLP-1-Based Multiagonists” (J Med Chem, 2024).

Activity calls are given as the source filed them. The rule behind the calls is not given here. Numbered stars: 1 amine (or outer) side, 2 acyl side, 3 side chain; on linkers, the order of the positions; unused ones are H or OH. Square brackets hold non-standard residues; d marks the D form. Side chains are listed from the residue outwards. Peptide text beside a SMILES is read from it. * marks the point of attachment. C18 diacid = O=C(O)CCCCCCCCCCCCCCCCC(=O)*; γGlu = O=C(O)[C@H](CCC(=O)[*:2])N[*:1]; AEEA = NCCOCCOCC(=O)O; Aib = CC(C)(N)C(=O)O

For test [1], the target named is T1, Glucagon-like peptide 1 receptor (Homo sapiens, UniProt P43220). Put plainly: Agonist activity at human GLP-1 receptor expressed in HEK293 cells assessed as cAMP level measured after 60 mins by HTRF based assay. The test is classed as functional, cell-based. (In general: Changes in cAMP serve as a functional read-out for many G protein-coupled receptors.)
Test [2] relates to Mus musculus. As to the kind of experiment: Antihyperglycemic effect in non-fasted DIO mouse assessed as decrease in blood glucose at 30 nmol/kg, sc measured upto 48 hrs. The test is classed as functional, organism-based.
For test [3], the target named is T1, Glucagon-like peptide 1 receptor. As to the kind of experiment: Potency index, ratio of Semaglutide EC50 to test compound EC50 for agonist activity at human GLP-1 receptor expressed in HEK293 cells assessed as cAMP level measured after 60 mins by HTRF based assay. Format: functional, cell-based. To be noted: filed as agonist.
For test [4], the system named is Mus musculus. As to the kind of experiment: Hypoglycemic effect in ICR mouse treated with 3 g/kg glucose assessed as reduction in blood glucose level at 100 nmol/kg, sc measured upto 120 mins by acute glucose lowering test. The test is classed as functional, organism-based.
In test [5] the test system is Mus musculus. Put plainly: Hypoglycemic effect in ICR mouse treated with 3 g/kg glucose assessed as reduction in blood glucose level at 30 nmol/kg, sc measured upto 120 mins pretreated with GLP-1R antagonist by OGTT. Format: functional, organism-based.
Test [6] deals with Mus musculus. Put plainly: Anorexigenic effect in ICR mouse assessed as decrease in food intake at 30 nmol/kg, sc measured upto 72 hrs by acute food intake study. Format: functional, organism-based.
Test [7] deals with Mus musculus. As to the kind of experiment: Anorexigenic effect in ICR mouse assessed as decrease in food intake at 30 nmol/kg, sc measured at 48 hrs by acute food intake study. Format: functional, organism-based.
The subject of test [8] is Mus musculus. Put plainly: Anorexigenic effect in ICR mouse assessed as decrease in food intake at 10 nmol/kg, sc measured upto 72 hrs by acute food intake study. Format: functional, organism-based.
Test [9] concerns Mus musculus. As to the kind of experiment: Anorexigenic effect in sc dosed ICR mouse assessed as decrease in food intake measured upto 72 hrs by acute food intake study. Format: functional, organism-based. As to conditions: dose 10-100 nmol/kg.
Test [10] relates to Mus musculus. As to the kind of experiment: Antihyperglycemic effect in DIO mouse assessed as antihyperglycemic duration by measuring blood glucose at 30 nmol/kg, sc measured after 48 hrs by hypoglycemic duration assay. The test is classed as functional, organism-based.
Test [11] has as its system Mus musculus. As to the kind of experiment: Antihyperglycemic effect in DIO mouse assessed as antihyperglycemic duration by measuring blood glucose at 30 nmol/kg, sc administered twice daily measured by hypoglycemic duration assay. Format: functional, organism-based.
In test [12] the test system is Mus musculus. As to the kind of experiment: Antihyperglycemic effect in DIO mouse assessed as prolonged antihyperglycemic duration by measuring blood glucose at 100 nmol/kg, sc. The test is classed as functional, organism-based.
Test [13] relates to Mus musculus. As to the kind of experiment: Reduction in body weight in DIO mouse at 30 nmol/kg, sc treated every 2 and half day once measured after 21 days. Format: functional. Also on record: scale not given: the % may be the effect or the level left. To be noted: time 21 day.
The test system of test [14] is Mus musculus. As to the kind of experiment: Reduction in blood glucose level in non-fasting DIO mouse at 30 nmol/kg, sc treated every 2 and half day once measured after 21 days by glucose tolerance test. To be noted: time 21.0 day. The test is classed as functional, organism-based.
For test [15], the system named is Mus musculus. Put plainly: Reduction in total fat mass in DIO mouse at 30 nmol/kg, sc treated every 2 and half day once measured after 21 days. Format: functional, organism-based. To be noted: time 21.0 day.
For test [16], the system named is Mus musculus. As to the kind of experiment: Reduction in serum triglyceride in DIO mouse at 30 nmol/kg, sc treated every 2 and half day once measured after 21 days. As to conditions: time 21.0 day. Format: functional, organism-based.
In test [17] the test system is Mus musculus. Put plainly: Reduction in total cholesterol in DIO mouse at 30 nmol/kg, sc treated every 2 and half day once measured after 21 days. The test is classed as functional, organism-based. To be noted: time 21.0 day.
The test system of test [18] is Mus musculus. As to the kind of experiment: Reduction in serum AST in DIO mouse at 30 nmol/kg, sc treated every 2 and half day once measured after 21 days. Format: functional, organism-based. To be noted: time 21.0 day.
Test [19] concerns Mus musculus. As to the kind of experiment: Reduction in serum ALT in DIO mouse at 30 nmol/kg, sc treated every 2 and half day once measured after 21 days. Format: functional, organism-based. To be noted: time 21.0 day.
Test [20] has as its system Mus musculus. Put plainly: Reduction in hepatic lipid content in DIO mouse at 30 nmol/kg, sc treated every 2 and half day once measured after 21 days by H and E staining based assay. Format: functional, organism-based. As to conditions: time 21.0 day.
For the next test, the target named is Glucagon receptor (Homo sapiens, UniProt P47871). Put plainly: Agonist activity at human GCGR expressed in HEK293 cells assessed as cAMP level measured after 60 mins by HTRF based assay. Format: functional, cell-based.
In test [21] the test system is Mus musculus. As to the kind of experiment: Reduction in body weight in DIO mouse at 30 nmol/kg, sc treated twice a day measured after 21 days. The test is classed as functional. Also on record: scale not given: the % may be the effect or the level left. As to conditions: time 21 day.
Test [22] deals with Mus musculus. As to the kind of experiment: Reduction in feed intake in DIO mouse at 30 nmol/kg, sc treated twice a day measured after 21 days. Format: functional, organism-based. As to conditions: time 21.0 day.
The test system of test [23] is Mus musculus. Put plainly: Reduction in serum AST level in DIO mouse at 30 nmol/kg, sc treated twice a day measured after 21 days. The test is classed as functional, organism-based. As to conditions: time 21.0 day.
Test [24] has as its system Mus musculus. As to the kind of experiment: Reduction in serum ALT level in DIO mouse at 30 nmol/kg, sc treated twice a day measured after 21 days. Format: functional, organism-based. As to conditions: time 21.0 day.

T1 sequence (P43220 whole entry): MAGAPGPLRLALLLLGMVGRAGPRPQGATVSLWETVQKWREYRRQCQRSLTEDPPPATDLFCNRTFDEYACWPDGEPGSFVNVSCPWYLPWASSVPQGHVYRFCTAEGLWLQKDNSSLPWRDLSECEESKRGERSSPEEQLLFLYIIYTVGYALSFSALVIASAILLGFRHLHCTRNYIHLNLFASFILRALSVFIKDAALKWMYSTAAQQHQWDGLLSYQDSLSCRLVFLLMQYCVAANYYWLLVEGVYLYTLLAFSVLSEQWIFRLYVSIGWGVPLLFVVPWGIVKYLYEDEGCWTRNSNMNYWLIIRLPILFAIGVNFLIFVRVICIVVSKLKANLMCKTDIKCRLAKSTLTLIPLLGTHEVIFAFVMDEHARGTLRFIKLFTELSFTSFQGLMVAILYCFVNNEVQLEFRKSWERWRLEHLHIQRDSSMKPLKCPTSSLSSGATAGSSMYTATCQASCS
Glucagon receptor, sequence (P47871 whole entry): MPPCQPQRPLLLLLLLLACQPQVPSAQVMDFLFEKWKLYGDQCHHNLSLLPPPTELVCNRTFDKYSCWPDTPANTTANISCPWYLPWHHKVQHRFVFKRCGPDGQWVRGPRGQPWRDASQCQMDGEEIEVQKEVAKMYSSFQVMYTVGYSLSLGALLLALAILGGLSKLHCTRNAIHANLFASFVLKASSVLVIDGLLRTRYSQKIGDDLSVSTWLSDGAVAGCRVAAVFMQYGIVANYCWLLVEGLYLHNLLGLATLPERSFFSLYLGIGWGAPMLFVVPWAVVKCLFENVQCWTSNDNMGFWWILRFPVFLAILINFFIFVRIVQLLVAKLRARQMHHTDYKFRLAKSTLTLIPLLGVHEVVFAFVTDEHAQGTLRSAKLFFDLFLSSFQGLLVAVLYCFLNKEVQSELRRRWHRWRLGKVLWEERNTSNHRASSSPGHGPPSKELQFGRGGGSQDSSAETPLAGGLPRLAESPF

In the case of `CC[C@H](C)[C@H](NC(=O)[C@H](CC(C)C)NC(=O)[C@H](Cc1c[nH]c2ccccc12)NC(=O)[C@H](CC(=O)O)NC(=O)[C@@H](NC(=O)[C@H](Cc1ccccc1)NC(=O)[C@H](CCC(=O)O)NC(=O)[C@H](CCCCNC(=O)COCCOCCNC(=O)COCCOCCNC(=O)CC[C@H](NC(=O)CCCCCCCCCCCCCCCCC(=O)O)C(=O)O)NC(=O)[C@H](C)NC(=O)[C@H](C)NC(=O)[C@H](CCC(=O)O)NC(=O)[C@H](CCC(=O)O)NC(=O)[C@H](CCC(=O)O)NC(=O)[C@H](CC(C)C)NC(=O)[C@H](Cc1ccc(O)cc1)NC(=O)[C@H](CO)NC(=O)[C@H](CO)NC(=O)[C@H](CCSC)NC(=O)[C@H](CC(=O)O)NC(=O)[C@H](CO)NC(=O)[C@@H](NC(=O)[C@H](Cc1ccccc1)NC(=O)[C@@H](NC(=O)CNC(=O)[C@H](CC(=O)O)NC(=O)C(C)(C)NC(=O)[C@@H](N)Cc1c[nH]cn1)[C@@H](C)O)[C@@H](C)O)C(C)C)C(=O)N[C@@H](CCCCN)C(=O)NCC(=O)N[C@@H](CCCNC(=N)N)C(=O)N1CCC[C@H]1C(=O)N[C@@H](C)C(N)=O` (H-H[Aib]DGTFTSDMSSYLEEEAAK([AEEA-AEEA-γGlu-C18 diacid])EFVDWLIKGRPA-NH2), the EC50 in [1] was determined as 0.019 nM. In addition, the outcome in the test with Mus musculus [2], in the test on Mus musculus [4], in the test with Mus musculus [6], with Mus musculus [7], in the test with Mus musculus [8] and in the test on Mus musculus [10] was Active. For the same compound, the outcome with Mus musculus [11], in the test with Mus musculus [12], in the test on Mus musculus [14], in the test with Mus musculus [15], in the test on Mus musculus [16] and in the test with Mus musculus [17] was Active. For the same compound, the result in the test with Mus musculus [18], with Mus musculus [19] and with Mus musculus [20] was Active. The Ratio EC50 in test [3] was determined as 2.8. Further, the outcome with Mus musculus [5] was inactive. The figures for the Activity entry with Mus musculus [9] and in the test with Mus musculus [13] were “Dose-Dependent Effect” and 24.9%, respectively.

On to `CCCCCCCCCCCCCCCC(=O)N[C@@H](CCC(=O)NCCCC[C@H](NC(=O)[C@H](CC(=O)O)NC(=O)[C@H](CO)NC(=O)[C@@H](NC(=O)[C@H](Cc1ccccc1)NC(=O)[C@@H](NC(=O)CNC(=O)[C@H](CCC(N)=O)NC(=O)[C@H](CO)NC(=O)[C@@H](N)Cc1c[nH]cn1)[C@@H](C)O)[C@@H](C)O)C(=O)N[C@@H](CO)C(=O)N[C@@H](CCC(=O)O)C(=O)N[C@@H](Cc1ccc(O)cc1)C(=O)N[C@@H](CC(C)C)C(=O)N[C@@H](CC(=O)O)C(=O)N[C@@H](CO)C(=O)N[C@@H](CCC(=O)O)C(=O)N[C@@H](CCCNC(=N)N)C(=O)N[C@@H](C)C(=O)N[C@@H](CCCNC(=N)N)C(=O)N[C@@H](CC(=O)O)C(=O)N[C@@H](Cc1ccccc1)C(=O)N[C@H](C(=O)N[C@@H](C)C(=O)N[C@@H](Cc1c[nH]c2ccccc12)C(=O)N[C@@H](CC(C)C)C(=O)N[C@@H](CCC(=O)O)C(=O)N[C@@H](C)C(=O)NCC(=O)NCC(=O)O)C(C)C)C(=O)O` [COTADUTIDE], for which the EC50 in test [1] came out at 0.075 nM; on Glucagon receptor, 0.17 nM. For the same compound, the result in the test with Mus musculus [4], in the test on Mus musculus [6], with Mus musculus [22], in the test with Mus musculus [23] and in the test with Mus musculus [24] was Active. In addition, the Activity in the test on Mus musculus [21] is reported as ~24.6%.

As a reminder, the EC50 is the concentration giving half of the maximal effect.
